Assays:
[1] = tested on: nicotine resistant yeast strain
Protocol: (§1) In the method, the X-PRESS yeast strain was subjected to a number of selection cycles to generate nicotine resistance. First, the X-PRESS yeast strain was cultured in liquid media (YP medium containing yeast extract (5 g/L); peptone (10 g/L)) to which 1% w/v (10 mg/ml) nicotine was added for 72 hr at 27° C. with shaking 200 rpm. […] After 72 hr, 100 μl of the culture was applied to a 1% w/v nicotine YP agar plate and allowed to grow on the plate at 27° C. for another 72 hr. In the next step, a single colony was inoculated into a 1.5% w/v nicotine YP medium solution and incubated for another 72 hr and the entire process was repeated. This process was repeated multiple times with the concentration of nicotine being increased in increments of 0.5% w/v at each cycle. […] In FIGS. 3A & 3B, the yeast strains were inoculated onto a nicotine-containing culture plate (nicotine 50 mg/ml, yeast extract 5 g/L, peptone 10 g/L and agar 15 g/L) and incubated at 27° C. for 3 days.
To ensure the stability of the nicotine resistance trait, an additional 20 generations of the resistant strain were cultured in the 7.5% w/v nicotine nutrient solution. […] This nicotine resistant Saccharomyces cerevisiae yeast strain was deposited on under the terms of the Budapest Treaty on the International Recognition of the Deposit of Microorganisms for the Purposes of Patent Procedure at the American Type Culture Collection (ATCC) in Manassas, Va., USA and bears the Patent Accession No. ______.

X-PRESS yeast strain = tested on: X-PRESS yeast strain
Protocol: as §1

With `CN1CCCC1c1cccnc1` (centres unmarked) [nicotine] as the compound, how does the “less ethanol production expected” value (yeast; in the presence of 0.5% nicotine) read?
The value was 21%.

What about the “less sugar consumption by yeast” value (yeast; nicotine 5 mg/ml added into fermentation solution (FIG. 1)) of the same compound?
Its value is 21%.

What about the “growth of nicotine resistant strain in medium” value [1] of the same compound?
The value was “capable of growing”.

And the “growth of nicotine resistant yeast” value [1]?
Its value is “still able to grow”.

And the “growth of nicotine resistant yeast on nicotine-containing culture plate” value [1]?
Its value is “grew well”.

What about the “effect on growth of X-PRESS yeast in liquid YP medium” value (X-PRESS yeast strain; 1% w/v (10 mg/ml) nicotine, 72 hr, 27° C., shaking 200 rpm) of the same compound?
Its value is “inhibited the growth rate, but did not kill the yeast”.

What about the “growth of X-PRESS yeast on nicotine-containing culture plate” value (X-PRESS yeast strain; nicotine 50 mg/ml, yeast extract 5 g/L, peptone 10 g/L, agar 15 g/L, 27° C., 3 days) of the same compound?
Its value is “No yeast growth could be observed”.

What about the “survival of X-PRESS yeast colonies” value (X-PRESS yeast strain; nicotine concentration of 7.5%) of the same compound?
Its value is “no surviving yeast colonies”.
